Measured values published in patent publication US10562920B2, “Ln(III) and Ga(III) metallacrown complexes” (The Regents of the University of Michigan, priority 2015, dated 2020).
Several values for one entry are separate records, joined by “and”; a condition that tells them apart may be missing. Identical values can stand only once. Marks after values point to notes of the source that are not given here.

Tests used:
Type in all cases: physicochemical
[1] = Quantum yields by absolute method using an integration sphere; details: for QLn^L/%: Ga6Ln(shi)9, solid state
Method: (§1) Luminescence data were collected on samples placed into 2.4 mm i.d. quartz capillaries or quartz Suprasil cells. Emission and excitation spectra were measured on a Horiba-Jobin-YvonFluorolog 3 spectrofluorimeter equipped with either a visible photomultiplier tube (PMT) (220-800 nm, R928P; Hamamatsu), a NIR solid-state InGaAs detector cooled to 77 K (800-1600 nm, DSS-IGA020L; Jobin-Yvon), or NIR PMTs (950-1450 nm, H10330-45; 950-1650 nm, H10330-75; Hamamatsu). All spectra were corrected for instrumental functions. Luminescence lifetimes were determined under excitation at 355 nm provided by a Nd:YAG laser (YG 980; Quantel), while the signal was detected in the NIR by the aforementioned PMT (H10330-75). The output signal from the detectors was then fed to a 500 MHz bandpass digital oscilloscope (TDS 754C; Tektronix) and then transferred to a PC for treatment with Origin 8®. Luminescence lifetimes are averages of at least three independent measurements. Quantum yields were determined with a Fluorolog 3 spectrofluorimeter according to an absolute method using an integration sphere (GMP SA). Each sample was measured several times under slightly different experimental conditions. Estimated experimental error for quantum yields determination is 10%.

[2] = Ligand triplet state from phosphorescence of Gd3+ analogues; details: for ΔE (cm^−1), energy gap between ligand triplet state and Ln3+ emissive state: T1 = 22 170 cm^−1, Ga4Ln(shi)4; for ligand triplet state (T1, 0-0 component of phosphorescence), wavelength / ligand triplet state energy (T1, 0-0 component of phosphorescence): solid state, 77 K, excitation 350 nm
Method: as §1
Phosphorescence can be observed by recording the signal emitted from Ga4Gd(shi)4 in time-resolved mode in the solid state at 77K upon excitation at 350 nm and using a 200 μS delay after the excitation flash (FIG. 9). The 0-0 component of this band represents the energy level of the ligand's triplet state (T1=22,170 cm^−1, 451 nm) which is attributed to the energy level responsible for the main contribution of the transfer to the Ln^3+. The T1 level is sufficiently high in energy to populate the excited states of a wide range of visible and NIR-emitting Ln^3+.
Since the Ga8Ln2(shi)8 dimer compounds were insoluble in all solvents, the solid state photophysical data alone were collected. As with the Ga4Gd(shi)4 compound, the Ga8Gd2(shi)8 complex may be used to examine the ligand-based photophysical properties. […] The solid state ligand phosphorescence was obtained at 77 K using an excitation wavelength of 350 nm and a 100 μs delay (FIG. 11). The profile of the phosphorescence is similar to that of Ga4Gd(shi)4 (FIG. 9), which was expected, since both compounds are formed by the same framework ligand, H3shi. The 0-0 transition was determined to be located at 455 nm, or 21 978 cm^−1. This triplet state energy is slightly lower than that of the Ga4Gd(shi)4 compound (22 170 cm^−1), but still is sufficiently high in energy to sensitize visible (Dy^3+, Tb^3+, Sm^3+) and/or NIR emitting (Dy^3+, Sm^3+, Ho^3+, Yb^3+, Pr^3+, Nd^3+, Er^3+) lanthanides.

[3] = Luminescence lifetimes under excitation at 355 nm; details: for τobs/μs: Ga8Ln2(shi)8, solid state
Method: as §1

[4] = Emission spectra under ligand excitation at 350 nm; details: Ga8Ln2(shi)8, solid state
Method: as §1
Using an excitation wavelength of 350 nm, both visible and NIR emission arising from f-f transitions of different lanthanide ions can be observed (FIG. 13). In general, quantum yields are lower for Ga8Ln2(shi)8 MCs compared to […] (Table 3) except for Ho^3+ analogues which quantum yield is increased by 1.65 times reaching 3.3(1)·10^−3%.

[5] = Hydration number q from lifetimes in deuterated and protic solvents
Text: One parameter that can be obtained from the recording of luminescence lifetimes is the hydration number q. […] This non-zero q value is particularly detrimental for the intensity of the luminescence (and to the corresponding quantum yield values) of NIR-emitting lanthanides since the overtones of high-energy vibrations of the solvent molecules create a route for non-radiative deactivation.

[6] = Ga8Ln2(shi)8, solid state, excitation 350 nm
[7] = from kCH3OH − kCD3OD, equations of footnotes b, c, e, g

## [ErGa4(shi)4(C6H5CO2)4(C5H5N)(CH3OH)].C5H6N.0.5C5H5N [Ga4Er(shi)4]
[1]; Ga4Ln(shi)4, CD3OD
  QLn^L (%) (NIR): 4.5(3)·10^−2%
[1]; Ga4Ln(shi)4, Solid
  QLn^L (%) (NIR): 4.4(1)·10^−2%
[2]
  ΔE (cm^−1), energy gap between ligand triplet state and Ln3+ emissive state: 15 470 cm^−1
[3]; Ga4Ln(shi)4, CD3OD
  τobs (μs): 1.74(1) μs
[3]; Ga4Ln(shi)4, Solid
  τobs (μs): 6.75(3) μs

## [Ga8Nd2(shi)8(isophthalate)4(DMF)6].8DMF.H2O
[1]; [6]
  QLn^L (%) (NIR): 0.99(2) %
[4]
  λem/nm: 1064 nm
[3]
  τobs/μs: 2.46(1) μs

## [Ga8Sm2(shi)8(isophthalate)4(DMF)6].8DMF.2H2O
[1]; [6]
  QLn^L (%) (NIR): 0.269(3) %
  QLn^L (%) (visible): 2.09(5) %
[4]
  λem/nm: 597 nm
[3]
  τobs/μs: 117(1) μs

## [HoGa6(shi)7(Hshi)(H2shi)(C6H16N)3(C5H5N)2].8H2O [Ga6Ho(shi)9]
[1]
  QLn^L/%: 1.1(2) · 10^−3%
[3]; Ga6Ln(shi)9, solid state
  τ/μs: 0.037(1) μs

## [Ga4Tb(shi)4(C6H5CO2)4(C5H5N)(CH3OH)].C5H6N.C5H5N.CH3OH
[5]; [7]
  q (hydration number): 1.2^c
[5]; qTb = 10.0 × (kCH3OH − kCD3OD − 0.06), footnote d
  q (hydration number): 0.9^d
[1]; Ga4Ln(shi)4, CD3OD
  QLn^L (%) (visible): 28.6(1) %
[1]; Ga4Ln(shi)4, CH3OH
  QLn^L (%) (visible): 23.7(3) %
[1]; Ga4Ln(shi)4, Solid
  QLn^L (%) (visible): 34.7% and 34.7(1) %
[2]
  ΔE (cm^−1), energy gap between ligand triplet state and Ln3+ emissive state: 1 770 cm^−1
[3]; Ga4Ln(shi)4, CD3OD
  τobs (μs): 1960(10) μs
[3]; Ga4Ln(shi)4, CH3OH
  τobs (μs): 1510(10) μs
[3]; Ga4Ln(shi)4, Solid
  τobs (μs): 1080(10) μs

## [TbGa6(shi)7(Hshi)(H2shi)(C6H16N)3(C5H5N)2] [Ga6Tb(shi)9]
[1]
  QLn^L/%: 0.189(3) %

## [Ga4Gd(shi)4(C6H5CO2)4(C5H5N)(CH3OH)].C5H6N.C5H5N.CH3OH
[2]
  ligand triplet state (T1, 0-0 component of phosphorescence), wavelength: 451 nm
  ligand triplet state energy (T1, 0-0 component of phosphorescence): 22,170 cm^−1 and 22 170 cm^−1

## [Ga8Er2(shi)8(isophthalate)4(DMF)6].8DMF.2H2O
[1]; [6]
  QLn^L (%) (NIR): 5.7(1) · 10^−3%
[4]
  λem/nm: 1525 nm
[3]
  τobs/μs: 5.23(2) μs

## [DyGa4(shi)4(H2shi)2(C5H5N)4(NO3)].(C5H5N)2 [Ga4Dyshi6]
[1]; solid state Ga4Ln(shi)6, only Dy
  QLn^L/% VIS (only Dy): 0.222(6) (only Dy) %
[1]; solid state Ga4Ln(shi)6, total
  QLn^L/% VIS (total): 0.308(8) (total) %
[3]; solid state Ga4Ln(shi)6
  τ/μs: 3.36(6) μs

## [ErGa6(shi)7(Hshi)(H2shi)(C6H16N)3(C5H5N)2].6H2O [Ga6Er(shi)9]
[1]
  QLn^L/%: 7.1(2) · 10^−3%
[3]; Ga6Ln(shi)9, solid state
  τ/μs: 0.905(8) μs

## [TmGa4(shi)4(C6H5CO2)4(C5H5N)(CH3OH)].C5H6N.0.5C5H5N [Ga4Tm(shi)4]
[1]; Ga4Ln(shi)4, Solid
  QLn^L (%) (visible): 0.02(1)^f %
[2]
  ΔE (cm^−1), energy gap between ligand triplet state and Ln3+ emissive state: 820 cm⁻¹
[3]; Ga4Ln(shi)4, Solid
  τobs (μs): 1.47(1) μs

## [Ga8Ho2(shi)8(isophthalate)4(DMF)6].8DMF.2H2O
[1]; [6]
  QLn^L (%) (NIR): 3.3(1) · 10^−3%
[4]
  λem/nm: 978 nm
[3]
  τobs/μs: 0.032(1) μs

## [YbGa6(shi)7(Hshi)(H2shi)(C6H16N)3(C5H5N)2].8H2O [Ga6Yb(shi)9]
[1]
  QLn^L/%: 0.65(3) %
[3]; Ga6Ln(shi)9, solid state
  τ/μs: 7.26(2) μs

## [PrGa6(shi)7(Hshi)(H2shi)(C6H16N)3(C5H5N)2].4H2O [Ga6Pr(shi)9]
[1]
  QLn^L/%: 3.7(2) · 10^−3%
[3]; Ga6Ln(shi)9, solid state
  τ/μs: 0.063(1) μs

## [TbGa4(shi)4(H2shi)2(C5H5N)4(NO3)].(C5H5N)2 [Ga4Tbshi6]
[1]; solid state Ga4Ln(shi)6
  QLn^L/% VIS: 11.3(5) %
[3]; solid state Ga4Ln(shi)6
  τ/μs: 509(7) μs

## [Ga8Dy2(shi)8(isophthalate)4(DMF)6].8DMF.2H2O
[1]; [6]
  QLn^L (%) (NIR): 7.5(1) · 10^−2%
  QLn^L (%) (visible): 0.85(1) %
[4]
  λem/nm: 575 nm
[3]
  τobs/μs: 15.0(1) μs

## [ErGa4(shi)4(H2shi)2(C5H5N)5].(NO3).(C5H5N) [Ga4Ershi6]
[1]; solid state Ga4Ln(shi)6
  QLn^L/% NIR: 1.55(3) · 10^−3%
[3]; solid state Ga4Ln(shi)6
  τ/μs: 0.220(3) μs

## [HoGa4(shi)4(H2shi)2(C5H5N)4(NO3)].(C5H5N)2 [Ga4Hoshi6]
[3]; solid state Ga4Ln(shi)6
  τ/μs: 0.032(1) μs

## [NdGa6(shi)7(Hshi)(H2shi)(C6H16N)3(C5H5N)2].7H2O [Ga6Nd(shi)9]
[1]
  QLn^L/%: 0.171(5) %
[3]; Ga6Ln(shi)9, solid state
  τ/μs: 0.71(1) μs

## [SmGa6(shi)7(Hshi)(H2shi)(C6H16N)3(C5H5N)2].6H2O [Ga6Sm(shi)9]
[1]
  QLn^L/%: 1.64(9) %
[3]; Ga6Ln(shi)9, solid state
  τ/μs: 70(1) μs

## [Ga4Eu(shi)4(C6H5CO2)4(C5H5N)(CH3OH)].C5H6N.C5H5N.CH3OH
[1]; Ga4Ln(shi)4, Solid
  QLn^L (%) (visible): 1.59(4) · 10^−2%
[2]
  ΔE (cm^−1), energy gap between ligand triplet state and Ln3+ emissive state: 4 910 cm^−1

## [Ga8Pr2(shi)8(isophthalate)4(DMF)6].8DMF.2H2O
[1]; [6]
  QLn^L (%) (NIR): 9.3(1) · 10^−3%
[4]
  λem/nm: 1020 nm
[3]
  τobs/μs: 0.901(6) μs

## [YbGa4(shi)4(C6H5CO2)4(C5H5N)(CH3OH)].C5H6N.C5H5N.CH3OH [Ga4Yb(shi)4]
[5]; [7]
  q (hydration number): 0.7^g
[1]; Ga4Ln(shi)4, CD3OD
  QLn^L (%) (NIR): 4.29(1) %
[1]; Ga4Ln(shi)4, CH3OH
  QLn^L (%) (NIR): 0.26(1) %
[1]; Ga4Ln(shi)4, Solid
  QLn^L (%) (NIR): 5.88(2) %
[2]
  ΔE (cm^−1), energy gap between ligand triplet state and Ln3+ emissive state: 11 870 cm^−1
[3]; Ga4Ln(shi)4, CD3OD
  τobs (μs): 36.6(1) μs
[3]; Ga4Ln(shi)4, CH3OH
  τobs (μs): 2.06(4) μs
[3]; Ga4Ln(shi)4, Solid
  τobs (μs): 55.7(3) μs

## [Ga4Sm(shi)4(C6H5CO2)4(C5H5N)(CH3OH)].C5H6N.C5H5N.CH3OH
[5]; [7]
  q (hydration number): 0.8^b
[1]; Ga4Ln(shi)4, CD3OD
  QLn^L (%) (NIR): 0.298(1) %
  QLn^L (%) (visible): 2.33(5) %
[1]; Ga4Ln(shi)4, CH3OH
  QLn^L (%) (NIR): 2.65(6) · 10^−2%
  QLn^L (%) (visible): 0.252(1) %
[1]; Ga4Ln(shi)4, Solid
  QLn^L (%) (NIR): 0.450(4) %
  QLn^L (%) (visible): 2.46(8) %
[2]
  ΔE (cm^−1), energy gap between ligand triplet state and Ln3+ emissive state: 4 270 cm^−1
[3]; Ga4Ln(shi)4, CD3OD
  τobs (μs): 255(1) μs
[3]; Ga4Ln(shi)4, CH3OH
  τobs (μs): 27.6(1) μs
[3]; Ga4Ln(shi)4, Solid
  τobs (μs): 148(1) μs

## [Ga8Tb2(shi)8(isophthalate)4(DMF)6].8DMF.H2O
[1]; [6]
  QLn^L (%) (visible): 31.2(2) %
[4]
  λem/nm: 545 nm
[3]
  τobs/μs: 1410(1) μs

## [YbGa4(shi)4(H2shi)2(C5H5N)5].(NO3).(C5H5N)2 [Ga4Ybshi6]
[1]; solid state Ga4Ln(shi)6
  QLn^L/% NIR: 0.216(6) %
[3]; solid state Ga4Ln(shi)6
  τ/μs: 2.99(2) μs

## [Ga8Yb2(shi)8(isophthalate)4(DMF)6].8DMF.3H2O
[1]; [6]
  QLn^L (%) (NIR): 2.43(6) %
[4]
  λem/nm: 980 nm
[3]
  τobs/μs: 30.5(1) μs

## [HoGa4(shi)4(C6H5CO2)4(C5H5N)(CH3OH)].C5H6N.C5H5N.CH3OH [Ga4Ho(shi)4]
[1]; Ga4Ln(shi)4, Solid
  QLn^L (%) (NIR): 2.0(2)·10^−3%
[2]
  ΔE (cm^−1), energy gap between ligand triplet state and Ln3+ emissive state: 6 670 cm^−1
[3]; Ga4Ln(shi)4, Solid
  τobs (μs): 0.029(1) μs

## [Ga8Gd2(shi)8(isophthalate)4(DMF)6].8DMF.H2O
[2]
  ligand triplet state (T1, 0-0 component of phosphorescence), wavelength: 455 nm
  ligand triplet state energy (T1, 0-0 component of phosphorescence): 21 978 cm^−1
